For one series, the target named is T1, α4β7 (Mus musculus, UniProt P26011+Q00651).
T1 construct: host or cells: TK1 mouse T cells
Put plainly: α4β7 Cell Adhesion Assay (Mouse), TK1 cells. It counts as cell-based. The following applies: Table 4-B; read-out: Cell Adhesion α4β7 Mouse IC50. In a few lines:
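Mouse TK1 cells in DMEM with 0.1% BSA, 10 mM HEPES pH 7 and 1 mM MnCl2 were allowed to adhere for 30-45 min at 37 °C to plates coated with recombinant human MAdCAM-1 Fc (200 ng/well) in the presence of serially diluted peptides. Adherent cells were quantified by MTT absorbance at 570 nm, with no-cell background subtracted for dose response.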

Series [1] is described as follows: Simulated Gastric Fluid (SGF) Assay. Type of series: in vitro ADME. The following applies: pig, simulated gastric fluid (SGF) with porcine pepsin, pH 2; Table 4-C, t1/2. The method in brief: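 Peptides at 20 μM final in simulated gastric fluid (NaCl, porcine pepsin, HCl; pH 2) at 37° C with shaking. Samples taken at 0, 15, 30 and 60 min, quenched in acetonitrile/0.1% formic acid and quantified by LC-MS/MS against internal standard, relative to time 0. Half-life from first-order exponential decay fit.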

The next series addresses α4β1 (Homo sapiens, UniProt P05556+P13612). In words: α4β1-VCAM Cell Adhesion Assay (Jurkat E6.1 human cells). It counts as cell-based. Details: host or cells: Jurkat E6.1 human T cells. To be noted: Table 4-B; read-out: Cell Adhesion α4β1 IC50. In a few lines: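 Jurkat E6.1 cells in DMEM with 0.1% BSA, 10 mM HEPES pH 7 and 1 mM MnCl2 were added (200,000/well) with serially diluted peptides to rh VCAM-1-Fc-coated wells (400 ng/well) for 30-45 min at 37 °C. Adherent cells after washing were quantified by MTT, absorbance 570 nm, with no-cell background subtracted for dose response.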

Numbered stars: 1 amine (or outer) side, 2 acyl side, 3 side chain; on linkers, the order of the positions; unused ones are H or OH. Bridge positions count the residues as written; N and C are the ends. Square brackets hold non-standard residues; d marks the D form. Peptide text beside a SMILES is read from it. I, II: the chains in the order shown. Diglycolyl = O=C(COCC(=O)[*:2])[*:1]; NMeR = CN[C@@H](CCCNC(=N)N)C(=O)O; β3hE = N[C@@H](CCC(=O)O)CC(=O)O; Pen = CC(C)(S)[C@H](N)C(=O)O

Sequence of α4β1 (P13612 34-1032): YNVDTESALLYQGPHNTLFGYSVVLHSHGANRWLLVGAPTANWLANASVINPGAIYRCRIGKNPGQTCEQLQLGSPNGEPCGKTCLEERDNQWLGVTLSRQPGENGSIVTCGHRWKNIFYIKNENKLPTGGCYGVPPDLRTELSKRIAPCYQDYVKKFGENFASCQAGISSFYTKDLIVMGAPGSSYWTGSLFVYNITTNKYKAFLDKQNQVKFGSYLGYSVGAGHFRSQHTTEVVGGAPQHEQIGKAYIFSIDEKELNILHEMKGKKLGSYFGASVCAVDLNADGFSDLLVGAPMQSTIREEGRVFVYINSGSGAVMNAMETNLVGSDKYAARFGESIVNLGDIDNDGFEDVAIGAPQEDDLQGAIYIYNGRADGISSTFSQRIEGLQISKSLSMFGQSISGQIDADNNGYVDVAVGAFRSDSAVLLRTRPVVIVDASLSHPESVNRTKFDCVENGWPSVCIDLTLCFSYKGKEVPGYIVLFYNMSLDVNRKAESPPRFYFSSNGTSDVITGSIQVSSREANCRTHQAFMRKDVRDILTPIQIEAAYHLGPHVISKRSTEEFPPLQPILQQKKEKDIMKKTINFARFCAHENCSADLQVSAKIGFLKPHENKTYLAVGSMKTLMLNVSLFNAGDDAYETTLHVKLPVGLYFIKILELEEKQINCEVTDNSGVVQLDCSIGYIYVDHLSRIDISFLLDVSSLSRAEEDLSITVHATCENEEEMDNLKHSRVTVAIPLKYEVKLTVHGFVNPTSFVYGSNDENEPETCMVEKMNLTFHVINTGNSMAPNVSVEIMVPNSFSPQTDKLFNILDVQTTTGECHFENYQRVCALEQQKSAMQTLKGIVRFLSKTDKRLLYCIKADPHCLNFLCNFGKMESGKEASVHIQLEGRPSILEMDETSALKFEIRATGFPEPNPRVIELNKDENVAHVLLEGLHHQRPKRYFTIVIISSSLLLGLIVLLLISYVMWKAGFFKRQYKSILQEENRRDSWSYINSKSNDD
Sequence of α4β1 (P05556 21-798): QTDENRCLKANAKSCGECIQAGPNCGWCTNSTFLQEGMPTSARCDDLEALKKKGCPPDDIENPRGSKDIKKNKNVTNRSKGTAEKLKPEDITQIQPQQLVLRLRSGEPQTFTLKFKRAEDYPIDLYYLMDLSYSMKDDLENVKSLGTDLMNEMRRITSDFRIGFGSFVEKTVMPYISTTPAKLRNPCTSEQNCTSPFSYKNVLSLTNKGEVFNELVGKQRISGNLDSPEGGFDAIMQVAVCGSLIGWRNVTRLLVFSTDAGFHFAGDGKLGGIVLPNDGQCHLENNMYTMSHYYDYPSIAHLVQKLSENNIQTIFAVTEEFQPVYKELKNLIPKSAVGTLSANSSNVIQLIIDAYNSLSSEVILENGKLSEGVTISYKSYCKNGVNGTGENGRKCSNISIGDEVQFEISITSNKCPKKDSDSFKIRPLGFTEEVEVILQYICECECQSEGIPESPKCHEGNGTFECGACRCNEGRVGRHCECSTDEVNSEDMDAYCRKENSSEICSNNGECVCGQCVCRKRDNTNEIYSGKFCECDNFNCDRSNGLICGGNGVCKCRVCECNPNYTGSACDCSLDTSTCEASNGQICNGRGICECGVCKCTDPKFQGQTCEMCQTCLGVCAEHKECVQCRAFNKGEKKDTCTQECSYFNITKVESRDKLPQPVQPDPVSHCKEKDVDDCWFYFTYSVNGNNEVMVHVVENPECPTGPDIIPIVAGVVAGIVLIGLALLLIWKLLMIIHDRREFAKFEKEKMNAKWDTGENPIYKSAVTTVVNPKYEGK
T1 sequence (Q00651 34-1039 limits assumed): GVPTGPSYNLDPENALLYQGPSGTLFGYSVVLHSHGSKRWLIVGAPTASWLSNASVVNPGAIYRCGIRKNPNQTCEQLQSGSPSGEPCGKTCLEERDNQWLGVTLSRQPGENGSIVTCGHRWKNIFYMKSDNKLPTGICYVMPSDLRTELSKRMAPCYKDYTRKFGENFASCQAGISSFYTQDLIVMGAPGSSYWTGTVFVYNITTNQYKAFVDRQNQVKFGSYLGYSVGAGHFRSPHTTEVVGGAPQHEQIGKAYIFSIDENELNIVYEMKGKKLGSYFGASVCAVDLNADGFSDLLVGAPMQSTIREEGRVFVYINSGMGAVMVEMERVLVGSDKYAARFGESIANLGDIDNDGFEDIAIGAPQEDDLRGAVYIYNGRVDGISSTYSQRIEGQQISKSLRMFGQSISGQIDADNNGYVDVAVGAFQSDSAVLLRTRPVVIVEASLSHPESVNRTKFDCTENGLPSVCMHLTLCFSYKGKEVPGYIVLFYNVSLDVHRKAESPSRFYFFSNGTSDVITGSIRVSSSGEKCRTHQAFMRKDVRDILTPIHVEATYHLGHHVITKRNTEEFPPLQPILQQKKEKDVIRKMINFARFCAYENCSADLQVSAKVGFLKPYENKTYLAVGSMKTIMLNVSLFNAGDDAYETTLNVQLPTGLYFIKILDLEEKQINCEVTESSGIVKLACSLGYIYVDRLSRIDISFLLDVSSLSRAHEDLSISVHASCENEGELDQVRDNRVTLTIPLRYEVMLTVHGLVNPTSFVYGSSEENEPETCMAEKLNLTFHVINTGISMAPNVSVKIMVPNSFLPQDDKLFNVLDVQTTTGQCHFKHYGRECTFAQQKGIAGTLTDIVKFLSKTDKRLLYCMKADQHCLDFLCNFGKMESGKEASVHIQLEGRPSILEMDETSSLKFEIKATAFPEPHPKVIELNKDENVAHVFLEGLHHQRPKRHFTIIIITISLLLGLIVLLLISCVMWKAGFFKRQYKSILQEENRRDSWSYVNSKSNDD
T1 sequence (P26011 20-806): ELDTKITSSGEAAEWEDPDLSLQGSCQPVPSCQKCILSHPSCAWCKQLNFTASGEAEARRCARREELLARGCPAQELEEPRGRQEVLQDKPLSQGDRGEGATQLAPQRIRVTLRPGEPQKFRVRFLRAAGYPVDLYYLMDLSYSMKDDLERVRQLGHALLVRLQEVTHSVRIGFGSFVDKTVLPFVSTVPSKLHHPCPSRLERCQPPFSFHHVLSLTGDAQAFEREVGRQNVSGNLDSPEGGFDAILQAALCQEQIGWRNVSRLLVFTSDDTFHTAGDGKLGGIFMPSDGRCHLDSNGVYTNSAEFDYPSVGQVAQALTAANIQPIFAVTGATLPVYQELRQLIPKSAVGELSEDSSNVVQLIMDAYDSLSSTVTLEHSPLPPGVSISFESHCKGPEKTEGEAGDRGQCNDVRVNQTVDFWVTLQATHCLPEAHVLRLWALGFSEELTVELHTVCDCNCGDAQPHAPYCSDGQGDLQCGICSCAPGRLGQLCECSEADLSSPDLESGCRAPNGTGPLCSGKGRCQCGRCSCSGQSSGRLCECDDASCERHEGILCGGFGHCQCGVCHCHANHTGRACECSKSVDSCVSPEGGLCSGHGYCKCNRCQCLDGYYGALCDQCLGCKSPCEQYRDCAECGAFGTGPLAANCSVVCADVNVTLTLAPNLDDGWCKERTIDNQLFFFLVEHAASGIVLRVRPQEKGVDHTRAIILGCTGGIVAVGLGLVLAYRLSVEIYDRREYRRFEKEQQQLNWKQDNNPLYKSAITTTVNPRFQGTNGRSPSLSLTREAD

For `CC(=O)N[C@@H]1C(=O)N(C)[C@@H](CCCNC(=N)N)C(=O)N[C@@H](CO)C(=O)N[C@@H](CC(=O)O)C(=O)N[C@@H]([C@@H](C)O)C(=O)N[C@@H](CC(C)C)C(=O)N[C@H](C(=O)N[C@@H](Cc2c[nH]c3ccccc23)C(=O)N[C@@H](CCC(=O)O)CC(=O)N[C@H](CCCCNC(=O)COCC(=O)NCCCC[C@@H](NC(=O)C[C@H](CCC(=O)O)NC(=O)[C@H](Cc2c[nH]c3ccccc23)NC(=O)[C@H]2NC(=O)[C@H](CC(C)C)NC(=O)[C@H]([C@@H](C)O)NC(=O)[C@H](CC(=O)O)NC(=O)[C@H](CO)NC(=O)[C@H](CCCNC(=N)N)N(C)C(=O)[C@@H](NC(C)=O)C(C)(C)SSC2(C)C)C(N)=O)C(N)=O)C(C)(C)SSC1(C)C` [compound 213, [Ac-Pen-(N-Me-Arg)-Ser-Asp-Thr-Leu-Pen-Trp-(β-homoGlu)-(D-Lys)-NH2]2-DIG] (I: Ac-[Pen][NMeR]SDTL[Pen]W[β3hE][dK]-NH2 / II: Ac-[Pen][NMeR]SDTL[Pen]W[β3hE][dK]-NH2; disulfide I:1-I:7, II:1-II:7; linker I:10-II:10 via Diglycolyl), the half-inhibitory concentration (IC50) was 4.2 nM on α4β7 and over 100000 nM on α4β1. This compound also yielded a half-life at 20 μM in series [1] of over 3 h.

For the compound `CC(=O)N[C@@H]1C(=O)N(C)[C@@H](CCCNC(=N)N)C(=O)N[C@@H](CO)C(=O)N[C@@H](CC(=O)O)C(=O)N[C@@H]([C@@H](C)O)C(=O)N[C@@H](CC(C)C)C(=O)N[C@H](C(=O)N[C@@H](Cc2c[nH]c3ccccc23)C(=O)N[C@H](CCC(=O)O)C(=O)N[C@H](CCCCNC(=O)COCC(=O)NCCCC[C@@H](NC(=O)[C@@H](CCC(=O)O)NC(=O)[C@H](Cc2c[nH]c3ccccc23)NC(=O)[C@H]2NC(=O)[C@H](CC(C)C)NC(=O)[C@H]([C@@H](C)O)NC(=O)[C@H](CC(=O)O)NC(=O)[C@H](CO)NC(=O)[C@H](CCCNC(=N)N)N(C)C(=O)[C@@H](NC(C)=O)C(C)(C)SSC2(C)C)C(=O)O)C(=O)O)C(C)(C)SSC1(C)C` [compound 216, (Ac-Pen-N-Me-R-S-D-T-L-Pen-W-e-k-OH)2-DIG] (I: Ac-[Pen][NMeR]SDTL[Pen]W[dE][dK]-OH / II: Ac-[Pen][NMeR]SDTL[Pen]W[dE][dK]-OH; disulfide I:1-I:7, II:1-II:7 (inferred); linker I:10-II:10 via Diglycolyl (inferred)), the results for the IC50 on α4β7 and at α4β1 were 1 nM and over 100000 nM, respectively. This compound also showed a half-life at 20 μM in series [1] of over 6 h.

Regarding `CC(=O)N[C@@H]1C(=O)N(C)[C@@H](CCCNC(=N)N)C(=O)N[C@@H](CO)C(=O)N[C@@H](CC(=O)O)C(=O)N[C@@H]([C@@H](C)O)C(=O)N[C@@H](CC(C)C)C(=O)N[C@H](C(=O)N[C@@H](Cc2c[nH]c3ccccc23)C(=O)N[C@@H](CCC(=O)O)C(=O)N[C@H](CCCCNC(=O)COCC(=O)NCCCC[C@@H](NC(=O)[C@H](CCC(=O)O)NC(=O)[C@H](Cc2c[nH]c3ccccc23)NC(=O)[C@H]2NC(=O)[C@H](CC(C)C)NC(=O)[C@H]([C@@H](C)O)NC(=O)[C@H](CC(=O)O)NC(=O)[C@H](CO)NC(=O)[C@H](CCCNC(=N)N)N(C)C(=O)[C@@H](NC(C)=O)C(C)(C)SSC2(C)C)C(N)=O)C(N)=O)C(C)(C)SSC1(C)C` [compound 217, (Ac-Pen-N-Me-R-S-D-T-L-Pen-W-E-k-NH2)2-DIG] (I: Ac-[Pen][NMeR]SDTL[Pen]WE[dK]-NH2 / II: Ac-[Pen][NMeR]SDTL[Pen]WE[dK]-NH2; disulfide I:1-I:7, II:1-II:7 (inferred); linker I:10-II:10 via Diglycolyl (inferred)), the IC50 is 1.2 nM on α4β7 and over 100000 nM at α4β1. The compound also came in with a half-life at 20 μM in series [1] of over 6 h.
